# Tested on: C-RAF-mediated ERK activation in B-RAF^WT IPC-298 cells (NRAS^Q61L)
# Assay: IPC-298 AlphaScreen SureFire pERK1/2 cellular assay
# Format: cell-based, human
# Conditions: 1 hour treatment, in comparison to Dabrafenib
# Experimental: On day 2, compounds at a concentration of 6 mM are serially diluted 5 μl into 45 μl of 100% dimethyl sulfoxide (DMSO) six times in 96-well plates for a total of 7 dilution points. […] The cells are treated for 1 hour at 37° C. in 5% CO2. The treatment is then removed and the cells are incubated with lysis buffer containing phosphatase inhibitors for 10 minutes at room temperature with gentle shaking. […] The biotinylated antibody binds to the streptavidin-coated donor beads and the phopsho-ERK1/2 antibody binds to the acceptor beads. Plates are read on an EnVision reader (Perkin Elmer) and excitation of the beads at 680 nm with a laser induces the release of singlet oxygen molecules from the donor beads that triggers energy transfer to the acceptor beads in close proximity, producing a signal that can be measured at 570 nm. Both antibodies bind to phosphorylated ERK proteins, bringing the donor and acceptor beads into close proximity.
# All data are analysed using the GraphPad Prism software package. Activation of ERK phosphorylation is expressed as a percentage of activation relative to the reference compound, Dabrafenib.
row,SMILES,paradoxical activation of MAPK pathway (ERK phosphorylation) relative to Dabrafenib
1,"O=C1CCc2c(Oc3ccc4c(c3)CC(c3nc(-c5ccncc5)c[nH]3)CO4)ccnc2N1 (stereo not drawn) [Example 4, 5-[3-[4-(4-pyridyl)-1H-imidazol-2-yl]chroman-6-yl]oxy-3,4-dihydro-1H-1,8-naphthyridin-2-one]",reduced paradoxical activity
2,"O=C1CCc2c(Oc3ccc4c(c3)O[C@H](c3nc(-c5ccccc5)c[nH]3)CO4)ccnc2N1 [Example 20, 5-[[(3R)-3-(4-phenyl-1H-imidazol-2-yl)-2,3-dihydro-1,4-benzodioxin-6-yl]oxy]-3,4-dihydro-1H-1,8-naphthyridin-2-one]",reduced paradoxical activity
3,"O=C1CCc2c(Oc3ccc4c(c3)CC(c3nc(-c5cccs5)c[nH]3)CO4)ccnc2N1 (stereo not drawn) [Example 7, 5-[3-[4-(2-thienyl)-1H-imidazol-2-yl]chroman-6-yl]oxy-3,4-dihydro-1H-1,8-naphthyridin-2-one]",reduced paradoxical activity
4,"O=C1CCc2c(Oc3ccc4c(c3)CC(c3cc(-c5ccccc5)[nH]n3)CO4)ccnc2N1 (stereo not drawn) [Example 18, 5-[3-(5-phenyl-1H-pyrazol-3-yl)chroman-6-yl]oxy-3,4-dihydro-1H-1,8-naphthyridin-2-one]",reduced paradoxical activity
5,"O=C1CCc2c(Oc3ccc4c(c3)CC(c3nc(-c5ccsc5)c[nH]3)CO4)ccnc2N1 (stereo not drawn) [Example 6, 5-[3-[4-(3-thienyl)-1H-imidazol-2-yl]chroman-6-yl]oxy-3,4-dihydro-1H-1,8-naphthyridin-2-one]",reduced paradoxical activity
6,"O=C1CCc2c(Oc3ccc4c(c3)O[C@@H](c3nc(-c5ccccc5)c[nH]3)CO4)ccnc2N1 [Example 19, 5-[[(3S)-3-(4-phenyl-1H-imidazol-2-yl)-2,3-dihydro-1,4-benzodioxin-6-yl]oxy]-3,4-dihydro-1H-1,8-naphthyridin-2-one]",reduced paradoxical activity
